Test results taken from patent US20240180923A1, “METHODS OF TREATING DISORDERS WITH ULK INHIBITORS” (Deciphera Pharmaceuticals, LLC, priority 2022, published 2024).
One block for each molecule: values may come before it.

How the values were obtained:
[1] = Nude mouse PK study with adagrasib and DCC-3116 treatment; type: in vivo; settings: for AUC(0-t) / Cmax: female, athymic nude, mouse, plasma, po; for AUC(0-t): read-out: adagrasib AUC0-2 h (average); for Cmax: read-out: adagrasib Cmax in plasma (average)
Protocol: The nude mouse PK study was performed at Attentive Science (Stilwell, KS), an AAALAC accredited facility. Food and water were provided ad libitum. […] Female athymic nude mice (n=3 per group) were dosed for 5 consecutive days. […] At 0, 0.5, and 2 h post final dose blood samples were collected from mice from each group. Blood samples were collected in K2EDTA tubes and processed into plasma, then stored at −20° C. Plasma samples were subjected to pharmacokinetic analysis using liquid chromatography coupled with tandem mass spectrometry analysis.

ULK = experiment: pATG13 ELISA in GIST-T1 cells, DCC-3116 with binimetinib and/or ripretinib; type: cell-based; settings: GIST-T1 cell line, FIG. 10
Protocol: A substrate solution for HRP was added and the absorbance was measured using a plate reader. Data was plotted in GraphPad Prism and fit to a sigmoidal dose response curve to generate IC50 values.

[2] = MiaPaca-2 xenograft PK/PD model: sotorasib plasma PK with DCC-3116; type: in vivo, mouse; settings: for AUC(0-t) / Cmax: female, Envigo Nude, mouse, plasma, po, 10 mg/kg
Protocol: The MiaPaca-2 xenograft model was performed in compliance with all the laws, regulations and guidelines of the National Institutes of Health (NIH) and with the approval of the Animal Care and Use Committee of Labcorp (Ann Arbor, MI), an AAALAC accredited facility. Food and water were provided ad libitum. […] Female Envigo Nude mice (6-7 weeks old) were inoculated subcutaneously just below the right high axilla with ten million cells in Dulbecco's Phosphate Buffered Saline with 50% Matrigel, using a 27-gauge needle and syringe. When tumor burdens reached 182 mm^3 on average on day 6, mice were randomly assigned into groups such that the mean tumor burden for all groups was within 10% of the overall mean tumor burden for the study population. […] At 2 h post final dose in the vehicle group, and 2, 6, and 10 h post final dose in the treatment groups, 3 mice from each group were sacrificed for tumor and plasma sampling. Blood samples were collected in K2EDTA tubes and processed into plasma, snap frozen in liquid nitrogen then stored at −80° C. Plasma samples were subjected to pharmacokinetic analysis using liquid chromatography coupled with tandem mass spectrometry analysis (Cayman Chemical, Ann Arbor, MI). Tumors were harvested and powdered over liquid nitrogen in covaris bags and stored at −80° C.

[3] = 25 mg/kg, adagrasib in combination with 25 mg/kg DCC-3116 (first statement)
[4] = 25 mg/kg, adagrasib in combination with 25 mg/kg DCC-3116 (second statement)
[5] = 100 mg/kg, adagrasib 100 mg/kg PO QD single agent, 5 days
[6] = 10 mg/kg sotorasib + 10 mg/kg DCC-3116
[7] = 10 mg/kg sotorasib + 25 mg/kg DCC-3116
[8] = 10 mg/kg sotorasib + 100 mg/kg DCC-3116
[9] = 10 mg/kg sotorasib as a single agent

differences in adagrasib Cmax and AUC0-2 h amongst groups ([1]; adagrasib alone versus with DCC-3116): not statistically significant | AUC(0-t) [1, 3]: 2970 ng·h/mL | Cmax [1, 3]: 1880 ng/mL | AUC(0-t) [1, 4]: 3560 ng·h/mL | Cmax [1, 4]: 2060 ng/mL | AUC(0-t) [1, 5]: 4230 ng·h/mL | Cmax [1, 5]: 2530 ng/mL
SMILES: C=C(F)C(=O)N1CCN(c2nc(OC[C@@H]3CCCN3C)nc3c2CCN(c2cccc4cccc(Cl)c24)C3)C[C@@H]1CC#N [adagrasib, reference compound]

SMILES: Cn1cnc2c(F)c(Nc3ccc(Br)cc3F)c(C(=O)NOCCO)cc21 [binimetinib]
effect on ULK activity (ULK): induces ULK Activity

AUC(0-t) [2, 6]: 344 ng·h/mL | Cmax [2, 6]: 76 ng/mL | AUC(0-t) [2, 7]: 727 ng·h/mL | Cmax [2, 7]: 170 ng/mL | AUC(0-t) [2, 8]: 385 ng·h/mL | Cmax [2, 8]: 74 ng/mL | AUC(0-t) [2, 9]: 963 ng·h/mL | Cmax [2, 9]: 296 ng/mL | differences in sotorasib Cmax and AUC0-10 h amongst groups ([2]; sotorasib alone versus with DCC-3116): not statistically significant
SMILES: C=CC(=O)N1CCN(c2nc(=O)n(-c3c(C)ccnc3C(C)C)c3nc(-c4c(O)cccc4F)c(F)cc23)[C@@H](C)C1 [sotorasib]
